# Laboratory results published in publication PMC6591174, “The beneficial androgenic action of steroidal aromatase inactivators in estrogen-dependent breast cancer after failure of nonsteroidal drugs” (Cell Death & Disease, 2019).
# Entries after “also recorded” stand apart in the source; their conditions may differ.
# Experiments:
# [1] = test system: prostate (P), seminal vesicle (SV), levator ani muscle (LA); test: Hershberger assay in orchiectomized rats; type: in vivo, Wistar male rats; conditions: for androgenic effect (P and SVs): 10 mg/kg s.c. once a day
# Procedure: Fig. 5 Estimation of the androgenic and myotrophic activities of the indicated compounds obtained by the Hershberger Assay. Wistar male rats were orchiectomized (orchi) or sham-operated (intact) under ether anesthesia. After 14 days of endogenous hormonal decline, animals were randomly allocated to treatment and vehicle groups (n = 6). The numbers at the end of the abbreviations correspond to the dose in mg/kg body weight of the animal. Flutamide was given by gavage (10 mg/kg/day). […] Then the animals were treated once a day. The rats were sacrificed after completion of the 12-day treatment. Following removal, wet weights of the prostate (P), seminal vesicle (SV), levator ani muscle (LA) were determined. a Size and shape of P, SV and LA at the end of the treatment period. b, c, and d, influence of treatment with the compounds alone or together with the antiandrogen flutamide at the indicated doses on the weight of the organs (P, SV and LA) of the castrated animals. The mean wet weight is represented by the bars in the graphs. Values are means ± SEM; bars, SEM. *P ≤ 0.05, **P ≤ 0.01 vs. control
# The Hershberger assay was performed according to the guidelines of the rodent Hershberger assay. Male Wistar rats (140 g, 5–6 weeks) were orchiectomized (orchi) or sham-operated (intact) under ether anesthesia. After 14 days of endogenous hormonal decline, animals were randomly allocated to treatment and vehicle groups (n = 6); orchi group = orchi rats receiving sham injections; intact group = sham-operated rats receiving sham injections; treatment group = orchi rats receiving drugs injections by subcutaneous. The antiandrogen flutamide given by gavage (10 mg/kg/day). Drugs were dissolved in ethanol and diluted in corn oil. The animals were treated once a day. Rats were sacrificed after completion of the 12-day treatment. Following removal, the wet weights of the P, SV, and LA muscle were determined. The data of tissue weights are presented as mean ± SEM.
# MCF-7 cells [2] = test: Cell proliferation assay (CCK8), MCF-7; type: cell-based, human; conditions: for proliferation of MCF-7 cells: 1 nM-10 μM, 6 days, 10% PRF-CT with 1 nM E2
# Procedure: (§1) Fig. 2 Proliferative response of cancer cells to indicated compounds. a–c the effect of concentrations of different compounds on the growth of the cells. […] Cell growth was measured as described in the “Materials and methods”. The proliferation of cells is expressed as the ratio of the cells compared with the control wells (untreated cells). d, e Influence of different compounds on the cell cycle of MCF-7 cells. MCF-7 cells were cultured in 10% PRF-CT with E2 (1 nM) for 3 days before plating. Cells were seeded in six-well plates and, the next day, starved in PRF for 24 h. Cells were exposed to different compounds at a concentration of 100 nM for 72 h, and then subjected to cell-cycle analysis as described in “Materials and methods”. f MCF-7 cells on poly-L-lysine-coated glass coverslips were exposed to compounds (100 nM) in 10% PRF-CT with 1 nM E2 for 72 h. Control cells were treated with vehicle. DAPI stains DNA, and the secondary anti-mouse antibody to detect the antibody bound to Ki-67 is labeled with the cyanine dye Cy3. The cells were stained with DAPI (blue). Immunofluorescence staining of Ki-67 of cells was observed using fluorescence microscope. Red: Ki-67; blue: nucleus.Typical image is shown. Scale bars: 10 μm. Data represent a mean ± SEM of three independent experiments, each in triplicate; bars, SEM. *P ≤ 0.05 vs. control
# (§2) After 24 h, cells were exposed for 3–6 days to various concentrations of compounds (1 nM– 10 μM) or left untreated. The incubation time and the compounds concentrations were chosen based on previous studies[17],[32]–[34]. The effects of the various drugs on cell proliferation at the indicated concentrations (1 nM– 10 μM) were determined by using a CCK8 kit (Dojindo Laboratories, Kumamoto, Japan) according to the manufacturer’s protocol. The absorbance at 450 nm was measured by using a Versamax microplate reader (Thermo Varioskan Flash, USA). Cell growth is expressed as the ratio of the cells compared with the control wells (untreated cells).
# ZR-75-1 cells = test: Cell proliferation assay (CCK8), ZR-75-1; type: cell-based, human; conditions: for proliferation of ZR-75-1 cells: 1 nM-10 μM, 6 days, 10% PRF-CT with 1 nM E2
# Procedure: as §1, §2
# [3] = test system: ER(+) breast cancer (luminal A tumors); design: method as in printed; conditions: daily topical application to the affected breast, within 40 days; earlier work of the authors, ref not given; cited from earlier work
# MCF-7 cells [4] = test: Cell cycle analysis by flow cytometry; type: cell-based, human; conditions: 100 nM, 72 h
# Procedure: Fig. 2 Proliferative response of cancer cells to indicated compounds. a–c the effect of concentrations of different compounds on the growth of the cells. Cells were cultured in 10% PRF-CT with E2 1 nM (MCF-7 and ZR-75-1) or without E2 (MDA-MB-231) for 3 days before plating. Cells were seeded in 96-well plates and 24 h later they were exposed to different concentrations (1 nM– 10 μM) of compounds for 6 days (MCF-7 and ZR-75-1) or 3 days (MDA-MB-231). Cell growth was measured as described in the “Materials and methods”. The proliferation of cells is expressed as the ratio of the cells compared with the control wells (untreated cells). d, e Influence of different compounds on the cell cycle of MCF-7 cells. MCF-7 cells were cultured in 10% PRF-CT with E2 (1 nM) for 3 days before plating. Cells were seeded in six-well plates and, the next day, starved in PRF for 24 h. Cells were exposed to different compounds at a concentration of 100 nM for 72 h, and then subjected to cell-cycle analysis as described in “Materials and methods”. f MCF-7 cells on poly-L-lysine-coated glass coverslips were exposed to compounds (100 nM) in 10% PRF-CT with 1 nM E2 for 72 h. Control cells were treated with vehicle. DAPI stains DNA, and the secondary anti-mouse antibody to detect the antibody bound to Ki-67 is labeled with the cyanine dye Cy3. The cells were stained with DAPI (blue). Immunofluorescence staining of Ki-67 of cells was observed using fluorescence microscope. Red: Ki-67; blue: nucleus.Typical image is shown. Scale bars: 10 μm. Data represent a mean ± SEM of three independent experiments, each in triplicate; bars, SEM. *P ≤ 0.05 vs. control
# Cell cycle kinetics were studied by flow cytometry. MCF-7 cells were cultured in 10% PRF–CT with 1 nM E2 for 3 days prior to seeding on six-well plates (10^5 cells/well). Following seeding of cells, cells were serum starved for 24 h, and then treated with media containing 100 nM of the test compounds for 72 h. Cell-cycle analysis was performed as described by Ando[20].
# [5] = target: T1, Rat AR ligand-binding domains (His-GST-ARLBD) (Rattus norvegicus, UniProt P15207); test: AR fluorescence polarization-based competitive hormone-binding assay (PolarScreen AR Competitor Assay, Red)
# T1 construct: purchased Invitrogen
# T1 sequence (P15207 651-882 limits assumed): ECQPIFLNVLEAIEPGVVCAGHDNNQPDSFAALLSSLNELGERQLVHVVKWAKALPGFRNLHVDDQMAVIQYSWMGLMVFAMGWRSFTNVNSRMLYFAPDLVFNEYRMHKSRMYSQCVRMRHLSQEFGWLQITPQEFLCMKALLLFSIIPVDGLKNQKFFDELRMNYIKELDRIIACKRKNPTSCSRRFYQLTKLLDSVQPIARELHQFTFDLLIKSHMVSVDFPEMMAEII
# Excerpt: Fig. 4 The affinity of indicated compounds to the AR and their regulation of AR transcriptional activity. a AR fluorescence polarization-based competitive hormone-binding assays. […] Curve fitting was done using GraphPad Prism software (version 7.00). […] ARE(3×)-regulated dual-luciferase activity in U2-OS cells under steroid-free conditions. Cells were transiently transfected with pcDNA3.1-AR and ARE3-luc2P (firefly luciferase reporter plasmids) and the internal normalization control pRL-TK (Renilla luciferase reporter plasmid). Six hours after transfection, cells were treated as indicated. Then they were assayed 48 h after transfection for dual-luciferase activity. […] Briefly, compounds were dissolved in DMSO and mixed at 2% (vol/vol) with AR Red Screening Buffer. The tested compounds were subsequently serially diluted in two-fold increments with AR Red Screening Buffer and mixed 1:1 (vol/vol) with a 2 × AR/Fluormone AL complex. Competition for binding AR between Fluormone AL and the tested compounds was allowed to come to equilibrium for 4 h and not more than 20 h at room temperature in the dark. Fluorescence polarization value (mP) was measured on a fluorescence polarization plate reader (Biotech cytation5). Each compound dose was performed in triplicate, relative error was calculated from the standard error of the mean (SEM), and curve fitting was performed using GraphPad Prism™ 7.0 software.
# [6] = test system: AR protein in MCF-7 cells; test: AR protein expression by western blot and immunofluorescence; type: cell-based, human; conditions: incubation 3 days
# Procedure: Fig. 3 Influence of indicated compounds on the expression of the AR. […] AR protein expression was analyzed by western blot as described in “Materials and methods”. b The densitometric evaluation of the bands is calculated by ImageJ. The numbers represent the densitometric value relative to untreated control. […] Typical image is shown. Scale bars: 10 μm
# Total cell proteins were obtained from 70% confluent cell cultures. Protein extracts of whole cells (50 μg) were denatured, separated by SDS–PAGE and transferred to polyvinylidene fluoride membranes. After blocking with 3% bovine serum albumin in Tris-buffered saline-Tween, membranes were probed overnight at 4 °C. […] After incubation with the appropriate secondary antibody, results were detected using ECL detection reagents. Immunoreactive bands were quantified by densitometry using ImageJ software.
# MCF-7 cells were seeded on 24-well plates (2 × 10^4 cells/well) with a poly-L-lysine-coated glass coverslip per well in 10% PRF–CT. […] Cells were visualized with a ×40 objective and a Qimaging digital camera coupled to an Olympus X71 fluorescence microscope using a red fluorescent protein filter.
# androgenic organs = test system: androgenic organs; design: method as in PMID 404132; conditions: doses of 3 and 10 mg/kg; cited from earlier work
# [7] = 100 nM compound with 100 nM OH-Flutamide
compound,measurement,setting,value
"CC(C)C(=O)Nc1ccc([N+](=O)[O-])c(C(F)(F)F)c1 [Flutamide, flutamide]",prevention of androgenic effects of the test compounds,"[1]; Flutamide by gavage 10 mg/kg/day, concomitant",All androgenic effects can be eliminated
"CC(C)(O)C(=O)Nc1ccc([N+](=O)[O-])c(C(F)(F)F)c1 [OH-Flutamide, hydroxyflutamide]","antiproliferative effect in presence of OH-Flutamide, MCF-7",MCF-7 cells [2]; [7],the antiproliferative effect of DHT is almost completely abolished
same,"antiproliferative effect in presence of OH-Flutamide, ZR-75-1",ZR-75-1 cells; [7],the antiproliferative effect of DHT is almost completely abolished
"C[C@]12CCC(=O)C(O)=C1CC[C@@H]1[C@@H]2CC[C@]2(C)C(=O)CC[C@@H]12 [4-OHA, 4-hydroxyandrostenedione]",proliferation of MCF-7 cells,MCF-7 cells [2],some antiproliferative action
same,reduction of tumor size (regression),[3],more than 50%
same,"influence on the cell cycle (G1/G0 increase, S-phase decrease)",MCF-7 cells [4],apparently more effective than Exemestane and 17-HEXE
same,proliferation of ZR-75-1 cells,ZR-75-1 cells,no effect on the growth
same,androgenic effect (P and SVs),"[1]; 12 days, castrated rats",no effect on P and SVs
same,androgenic effect (P and SVs),"[1]; 12 days, castrated rats, listed as Formestane",no effect on androgenic organs whatsoever
C[C@@H]1CC2=CC(=O)CC[C@@H]2[C@H]2CC[C@@]3(C)[C@@H](CC[C@]3(C)O)[C@@H]21 [Mibolerone],proliferation of MCF-7 cells,MCF-7 cells [2],antiproliferative in two ER(+)/AR(+) cell lines at all concentrations
same,proliferation of ZR-75-1 cells,ZR-75-1 cells,antiproliferative in two ER(+)/AR(+) cell lines at all concentrations
same,"effect on P, SVs and LA compared with DHT","[1]; 0.5 mg/kg s.c. once a day, 12 days, castrated rats",more effective than DHT
same,IC50,[5],11.8 nM
C=C1C[C@@H]2[C@H](CC[C@]3(C)C(=O)CC[C@@H]23)[C@@]2(C)C=CC(=O)C=C12 [Exemestane],expression of the AR protein,[6],considerably more effective than Formestane
same,androgenic activity,androgenic organs,slight androgenic activity
same,proliferation of MCF-7 cells,MCF-7 cells [2],less effective
same,proliferation of ZR-75-1 cells,ZR-75-1 cells,less effective
same,androgenic effect (P and SVs),"[1]; 12 days, castrated rats",slightly androgenic; also recorded: the same effect
